# From patent US7138546B2, “Compounds and compositions for delivering active agents” (Emisphere Technologies, Inc., priority 2000, dated 2006)
row,SMILES,melting point [°C]
1,"O=C(COc1ccccc1O)Nc1cc(Cl)ccc1O [Compound 1, N-(5-Chloro-2-hydroxyphenyl)-2-(2-hydroxyphenoxy)acetamide]",203 to 205
2,"CCOCCC(=O)Nc1cc(Cl)ccc1O [Compound 2, N-(5-Choro-2-hydroxyphenyl)-3-ethoxypropanamide]",154 to 156
